How the values were obtained:
[1] = test system: YAP-TEAD transcriptional activity; assay: HOP-flash TEAD binding site luciferase reporter; assay type: cell-based, human; settings: LN229 or GBM39 cells, 18 h
Description: Levels of total YAP were determined via ELISA. […] Immunoprecipitates were immunoblotted for the indicated proteins. […] Cells were treated with the indicated concentrations of inhibitor for 18 h and mRNA extracted for real time RT-PCR analyses. Measurements were performed in quadruplicate and means and+S.D. are shown. […] Cells were treated with (+) or without (−) NSC682769 (100 nM, 18 h) and harvested and separated into cytoplasmic and nuclear cellular fractions. Cytoplasmic versus nuclear material was subsequently immunoblotted for the indicated proteins. […] Values in top right corner of panels correspond to the percentage of nuclear localized YAP. Cells were grown on coverslips and treated with NSC682769. Cells were permeabilized and stained using primary antibody to YAP1 and FITC-conjugated secondary. Nuclei were stained with DAPI. Scale bar, 20 μm.
Surface plasmon resonance (SPR), ELISA, YAP-TEAD reporter activity, cellular fractionation, and immunofluorescence analyses. SPR experiments were carried out on a Nicoya OpenSPR™ instrument using immobilized YAP on a carboxyl-coated sensor. […] YAP-TEAD reporter activity was determined as previously described (Kim N G, Gumbiner B M (2015) J Cell Biol 210: 503-515). […] Luciferase activity was measured via a luciferase assay system (Promega). […] Cell lysis was monitored by trypan blue staining. […]

LN229 and GBM39 cells = assay: Annexin V-FITC/PI apoptosis by flow cytometry; assay type: cell-based, human; settings: LN229 and GBM39, 48 h
From the text: Cells were layered in soft agar to evaluate anchorage-independent growth in the presence of the indicated concentrations of inhibitor and colonies counted following 14 days of growth. Representative crystal violet stained images are shown below. Data represent mean+S.D. of three independent experiments. […] Cells were placed in Boyden chambers and allowed to migrate towards BSA (white bars), vitronectin (light yellow bars), or fibronectin (dark yellow bars) (*, P<0.05; n=3). […] Representative crystal violet stained images are shown (200×). Data represent mean+S.D. of three independent experiments. […] Graphical data shown below represent mean+S.D. (late apoptosis; annexin V-positive, PI-positive) of three independent experiments.
Cell proliferation, clonogenic, migration, invasion and apoptosis assays. Cell proliferation was determined via Cell Titer-Glo® luminescent cell assays (Promega). Clonogenic assays were done by plating a total of 1,000 cells per well in 24-well plates in a total volume of 400 μL using a two-layered soft agar system as previously described (Masri J, et al. (2007) Cancer Res 67: 11712-11720). Cell migration assays were conducted using precoated modified Boyden chambers as previously described (Benavides-Serrato A, et al. (2017) PLoS One 12: e0176599). […]

Q: How did the “YAP-TEAD transcriptional activity (luciferase)” value [1] turn out when COc1ccc(-c2cc(-c3ccccc3)nc3c2CC(=O)Nc2ccccc2-3)cc1OC [NSC682769] was run?
A: Its value is “markedly reduced”.

Q: And the Apoptosis (LN229 and GBM39 cells)?
A: Its Apoptosis is “enhanced”.

— US20240108634A1, “COMPOSITIONS AND METHODS FOR INHIBITING YAP” (The United States Government as represented by the …, priority 2021, published 2024)
